From article PMC9631117, “Epitope length variants balance protective immune responses and viral escape in HIV-1 infection” (Cell Reports, 2022)
“Also recorded” adds a separate entry of the source.

What was measured:
ERAP1/2 = details: incubation with ERAP1/2 for 140 min, Figure 1G, result in words
TAP = assay: TAP-peptide competitive binding assay; details: result in words; for Normalized TAP affinity relative to KK10: competitive binding, Figure 1E
[1] = tested on: KK10-specific CTL clone G12C; assay: Competition IFN-γ ELISpot with KK10-specific CTL clone G12C and T2-HLA-B*27:05 cells; format: cell-based, human; details: result in words; for Inhibition of the G12C response to KK10 at the amounts produced by proteasomal digestion: comparison of competition ELISpot with the processing data; for Effect on IFN-γ release by G12C in response to KK10 at the EC50 concentration: peptide pre-incubated 30 min at 37°C with T2-HLA-B*27:05 cells at molar ratios 1-800 relative to KK10
Procedure: G12C cells were expanded as described previously([Iversen et al., 2006]) and rested for 2 days in fresh medium supplemented with IL-2 (20 IU/mL) and IL-15 (25 ng/mL) before testing in IFN-γ ELISpot assays (Merck Millipore) ([Tenzer et al., 2009], [2014]). TAP-deficient T2 cells were transfected with HLA-B^∗27:05 to generate T2-HLA-B^∗27:05 cells ([Kuipers et al., 1996]). These cells were used in competition assays to minimize the potentially confounding effects of internally loaded peptides and other HLA class I and class II molecules. […] The EC50 concentration was determined in preliminary ELISpot assays as the concentration required to elicit half-maximal IFN-γ production ([Tenzer et al., 2009], [2014]). Samples were tested in triplicate or quadruplicate. G12C responses were expressed as spot-forming units per 10^6 cells. Standard ex vivo IFN-γ ELISpot assays were performed as described previously ([Tenzer et al., 2009], [2014]).

[2] = tested on: PBMCs isolated from HLA-B*27:05+ patients with chronic HIV-1 infection; assay: Ex vivo IFN-γ ELISpot; format: cell-based, human; details: PBMCs of ten HLA-B*27:05+ patients, result in words
KIR3DL1*001 = KIR3DL1*001 binding assay (dextramer staining of KIR3DL1*001-transfected BA/F3 cells); details: peptide complexed with HLA-B*27:05 dextramer; Figure 7A; result in words
Procedure: Each line was stained with LIVE/DEAD Fixable Violet (Thermo Fisher Scientific). […] The parental line was used as a control for each condition. Samples were tested in duplicate.

HLA-B*27:05 = HLA-B*27:05 (Homo sapiens, UniProt P01889, D138H/D201E/E176V/E204Q/G107R/H137Y/K202T/N104T/N87E/Q56L/Q94K/R106L/R155S/R180L/S101D/S121N/S48T/Y140D/Y33H/Y91C); assay: Refolding of epitope-form peptides with HLA-B*27:05 heavy chain and β2m (heterotrimer formation); format: binding; details: rapid dilution refold, size exclusion, mass spectrometry, result in words
From the text: HLA-B^∗27:05 heavy chain and β2M proteins were expressed and purified as described previously ([Burgess, 2009]; [Tenzer et al., 2009]) and refolded with peptide using a rapid dilution method ([Tsumoto et al., 2003]). Heterotrimeric complexes were purified via size exclusion using a HiLoad 26/600 Superdex 75 pg column fitted to an AKTA Purifier FPLC System (GE Healthcare). Eluent fractions corresponding to absorbance peaks were examined via SDS-PAGE. Heterotrimeric complexes were then purified again via size exclusion using a Superdex 75 10/300 GL column fitted to an AKTA Purifier FPLC System (GE Healthcare). Correctly refolded heterotrimers were concentrated to > 10 mg/mL for crystallization trials using Amicon Ultra-0.5 Centrifugal Filter Units with Ultracel-10 Membranes (Merck Millipore). Optimal protein concentrations were determined for each complex using a PCT Pre-Crystallization Test (Hampton Research). […] Crystallization was carried out using the sitting-drop vapor-diffusion method. Briefly, crystallization screen reagents (Hampton Research) were dispensed into a CrystalQuick 96 Well Sitting Drop Plate (Greiner) using a Hydra eDrop II (Thermo Fisher Scientific), and 10 nL of protein was dispensed as a sitting drop in each well after mixing with 10 nL of the corresponding well buffer using a Microsys Liquid Handler (Cartesian Technologies). Crystal screens were stored at 4°C using a Protein Crystallization Imager (Formulatrix). Crystals obtained from the screens were immersed in reservoir buffer containing 20% glycerol as a cryoprotectant and vitrified at 100 K in liquid nitrogen. X-ray diffraction was carried out on beamlines at the European Synchrotron Radiation Facility, Grenoble, France (www.esrf.eu) or at the Diamond Light Source, Didcot, UK (www.diamond.ac.uk).

Substance: GEIYKRWIILGLNKI [GI15]
- ERAP1/2 trimming (reduction in abundance) (ERAP1/2): trimmed significantly more than other epitope forms

Substance: KRWIIL [KL6]
- Normalized TAP affinity relative to KK10 (TAP): exceeded that of the immunodominant HLA-B^∗57:01/B^∗5703-restricted HIV-1 epitope TW10
- Inhibition of the G12C response to KK10 at the amounts produced by proteasomal digestion [1]: more than halve the G12C response to KK10
- Peptide-specific IFN-γ release (immunogenicity) [2]: poor immunogenicity

Substance: KRWIIMGL [KL8-M]
- KIR3DL1 binding relative to KK10 (KIR3DL1*001): marginally increased binding to KIR3DL1

Substance: KRWIILG [KG7]
- Normalized TAP affinity relative to KK10 (TAP): exceeded that of the immunodominant HLA-B^∗57:01/B^∗5703-restricted HIV-1 epitope TW10
- Peptide-specific IFN-γ release (immunogenicity) [2]: poor immunogenicity

Substance: KRWII [KI5]
- Normalized TAP affinity relative to KK10 (TAP): lowest affinities
- Formation of heterotrimeric complexes with HLA-B*27:05 heavy chain and β2m in refolds (HLA-B*27:05): refolded inefficiently
- Formation of heterotrimeric complexes with HLA-B*27:05 heavy chain and β2m in refolds (HLA-B*27:05; listed as KL5): formation of heterotrimeric complexes
- Effect on IFN-γ release by G12C in response to KK10 at the EC50 concentration [1]: less striking than those of the longer minitopes
- Peptide-specific IFN-γ release (immunogenicity) [2]: poor immunogenicity

Substance: KRWI [KI4]
- Normalized TAP affinity relative to KK10 (TAP): lowest affinities
- Formation of heterotrimeric complexes with HLA-B*27:05 heavy chain and β2m in refolds (HLA-B*27:05): formation of heterotrimeric complexes; also recorded: refolded inefficiently
- Effect on IFN-γ release by G12C in response to KK10 at the EC50 concentration [1]: less striking than those of the longer minitopes
- Peptide-specific IFN-γ release (immunogenicity) [2]: poor immunogenicity

Substance: KRWIILGL [KL8]
- Normalized TAP affinity relative to KK10 (TAP): exceeded that of the immunodominant HLA-B^∗57:01/B^∗5703-restricted HIV-1 epitope TW10
- TAP-adjusted production of KK10 epitope forms (predicted relative abundance in the ER) (TAP; proteasomal production adjusted for TAP interactions, Figure 1F): dominant minitope
- Inhibition of the G12C response to KK10 at the amounts produced by proteasomal digestion [1]: more than halve the G12C response to KK10
- Peptide-specific IFN-γ release (immunogenicity) [2]: Specific IFN-γ release was identified
- KIR3DL1 binding relative to KK10 (KIR3DL1*001): Further reductions
